Measurements as given in patent US20220324868A1, “Pyrazolone-Fused Pyrimidine Compound, and Preparation Method and Use Therefor” (SHANGHAI PHARMACEUTICALS HOLDING CO., LTD., priority 2019, published 2022).
pIC50: −log10 of the molar value. Structures can show the parent of a compound that is named as a salt. Where two headings read alike, the source gives them in different places.

Legend:
[1] = target: T1, WEE1 kinase (Homo sapiens, UniProt P30291); assay: Inhibitory effect on WEE1 kinase in vitro (ELISA); format: biochemical; settings: ATP concentration of Km (12 μM), WEE1 0.15 ng/μL, 60 min; for pIC50: read-out: WEE1 IC50
T1 construct: purchased CarnaBiosciences, Inc. 05-177
Description: I. Inhibitory Effect of Compound on WEE1 Kinase In Vitro
The tested compounds were screened on WEE1 kinase with ATP concentration of Km by ELISA. Three compounds were screened on WEE1 kinase to evaluate the kinase inhibitory activity of the tested compounds. In the detection process, the initial concentration of the tested compounds was all selected as 100 nM, and each compound was selected with 6 gradient dilution concentrations, the gradient dilution ratio was 4-fold, and two replicate wells were detected for each concentration, MK1775 was used as the standard control.
1. Coating substrate: 1) An appropriate volume of substrate storage solution protein tyrosinase (PTK) substrate (poly-Glu-Tyr) was taken, diluted 10 times with PBS, and the concentration was diluted from […]. The mixture was added to a high adsorption 96-well plate at 125 μL per well. The plate was placed in an incubator at 37° C. for overnight coating. 2) After 24 hours, the 96-well plate was taken out, the liquid in the 96-well plate was poured out, cleaned with washing buffer for 3 times, and the incubator at 37 was inverted and dried for 2 hours.
3. Enzyme reaction stage: 1) WEE1 kinase and ATP were prepared into 2× enzyme solution and 4× ATP solution respectively with 1× reaction buffer.
4. Reaction termination stage: 1) the reaction mixture in the plate was poured out, 200 μL of washing buffer was added to each well, and washed for 5 times; the primary antibody P-Tyr (PY99) (dilution ratio 1:2000) was added, 100 μL per well, at room temperature for 30 min. 2) The primary antibody in the plate was poured out, 200 μL of washing buffer was added to each well, and washed for 5 times; the second antibody Anti-mouse IgG HRP-linked Antibody (dilution ratio 1:2000) was added, 100 μL per well, at room temperature for 30 min. 3) The secondary antibody in the plate was poured out, washed 5 times with washing buffer, and TMB was added, 100 μL per well, and colored for 10-30 min, depending on the color depth. The reaction was terminated with 1N sulfuric acid before reading.
5. […] 2) Graphpad Prism 5.0 was used to fit Log(inhibitor) vs. response-Variable slope (four parameters) curves to the data, and the corresponding IC50 (half maximal inhibitory concentration) was calculated.

[2] = system: COLO 205 cells; assay: Proliferation inhibition of COLO 205 cells (Luminescence ATP Detection, ATPlite); format: cell-based; settings: Homo sapiens; p53-deficient cell line COLO 205, 72 hours
Description: (§1) I. Proliferation Inhibitory of the Compound on COLO 205 Cells and Hela Cells.
(§2) COLO205 cells, purchased from SIBS, generation P11; Hela purchased from ATCC, generation P13.
(§3) Drug treatment of cells: on the third day of the experiment, microplates were removed from the incubator, 9× compound were added to each well in the microplate, and 5 μL was added to each well, wherein there were 2 replicate wells for each drug concentration and 10 drug concentrations for each compound. According to different cell lines, the initial concentration of each compound was different, after the completion, the microplate was cultured at 37° C. and 5% CO2 for 72 hours.
(§4) Data collection: The microplates were removed from the incubator and equilibrated at room temperature for 30 minutes. 100 μL of ATPlite reaction mixture after room temperature equilibrium was added to each well, the solution was shaken at room temperature of 1300 rpm for 2 minutes, and then the microplate was placed in a HERAEUS Multifuge X1R centrifuge at 2000 rpm for 1 minute; after equilibrium at room temperature for 10 minutes, the fluorescence signal value was measured on EnVision™.
(§5) Calculation of cell viability: Cell viability(%)=signal value of administration/signal value of controlx 100%. Graphpad Prism 5.0 was used to fit Log(inhibitor) vs. response-Variable slope (four parameters) curves to the fluorescence signal values at each concentration, and the corresponding IC50 (half maximal inhibitory concentration) was calculated.

[3] = system: Hela cells; assay: Proliferation inhibition of Hela cells (Luminescence ATP Detection, ATPlite); format: cell-based; settings: Homo sapiens, 72 hours
Description: as §1, §2
Cell culture and inoculation: on the first day of the experiment, cells in normal culture were taken in their exponential growth state, digested and dispersed, the cell density was adjusted to 9×10^3 cells/mL, and 40 μL per well were inoculated into 384-well cell culture plates; after inoculation was completed, the microplates were placed at 37° C. and 5% CO2 for incubation.
as §3, with “second” for “third”
as §4, with “the” for “The”, “40” for “100”
as §5

T1 sequence (P30291 whole entry): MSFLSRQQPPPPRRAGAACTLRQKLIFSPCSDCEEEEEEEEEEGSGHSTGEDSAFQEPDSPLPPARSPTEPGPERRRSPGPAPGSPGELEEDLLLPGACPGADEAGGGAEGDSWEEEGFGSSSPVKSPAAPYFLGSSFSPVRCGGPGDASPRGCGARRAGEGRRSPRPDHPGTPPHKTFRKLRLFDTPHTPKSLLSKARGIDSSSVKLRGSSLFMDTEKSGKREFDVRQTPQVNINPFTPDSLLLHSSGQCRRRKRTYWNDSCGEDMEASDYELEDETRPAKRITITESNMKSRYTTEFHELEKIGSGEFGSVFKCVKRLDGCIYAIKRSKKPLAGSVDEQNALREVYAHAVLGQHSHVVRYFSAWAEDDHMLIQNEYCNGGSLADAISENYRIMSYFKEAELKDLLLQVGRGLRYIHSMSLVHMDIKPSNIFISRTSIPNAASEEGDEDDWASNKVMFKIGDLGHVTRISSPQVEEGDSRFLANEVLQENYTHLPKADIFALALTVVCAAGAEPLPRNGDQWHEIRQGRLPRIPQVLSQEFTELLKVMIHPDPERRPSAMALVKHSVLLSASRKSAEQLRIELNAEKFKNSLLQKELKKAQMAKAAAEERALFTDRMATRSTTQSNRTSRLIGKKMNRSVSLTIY

With C=CCn1c(=O)c2cnc(Nc3ccc([C@H]4CC[C@@H](N(C)C)CC4)cc3)nc2n1-c1ccc2c(n1)C(O)CC2 (single isomer, unassigned) [Compound I-30-1] the pIC50 [1] was 8.23.

Molecule C=CCn1c(=O)c2cnc(Nc3ccc([C@H]4CC[C@@H](N(C)C)CC4)cc3)nc2n1-c1ccc2c(n1)C(O)CC2 (single isomer, unassigned) [Compound I-30-2] has a pIC50 [1] of 8.18.

C=CCn1c(=O)c2cnc(Nc3ccc([C@H]4CC[C@@H](N(C)C)CC4)cc3)nc2n1-c1ccc2c(n1)C(C)(O)CCC2 (single isomer, unassigned) [Compound I-36-1] gave a pIC50 [1] of 8.32.

C=CCn1c(=O)c2cnc(Nc3ccc([C@H]4CC[C@@H](N(C)C)CC4)cc3)nc2n1-c1ccc2c(n1)C(C)(O)CCC2 (single isomer, unassigned) [Compound I-36-2] gave a pIC50 [1] of 8.58.

Work on C=CCn1c(=O)c2cnc(Nc3ccc(N4CCN(C)CC4)cc3)nc2n1-c1ccc2c(n1)C(O)CC2 (stereo not drawn) [Compound I-1, 2-allyl-1-(7-hydroxy-6,7-dihydro-5H-cyclopenta[b]pyridin-2-yl)-6-((4-(4-methylpiperazin-1-yl)phenyl)amino)-1,2-dihydro-3H-pyrazolo[3,4-d]pyrimidin-3-one] yielded an IC50 ([1]; WEE1 IC50, nM) of 2.85 nM, a pIC50 [2] of 5.73 and a pIC50 [3] of 6.31.

Work on C=CCn1c(=O)c2cnc(Nc3ccc(N4CCN(CC)CC4)cc3)nc2n1-c1ccc2c(n1)C(O)CC2 (stereo not drawn) [Compound I-2] yielded a pIC50 [1] of 8.59, a pIC50 [2] of 5.76 and a pIC50 [3] of 6.46.

C=CCn1c(=O)c2cnc(Nc3ccc(C4CCN(C)CC4)cc3)nc2n1-c1ccc2c(n1)C(O)CC2 (stereo not drawn) [Compound I-3] gave a pIC50 [1] of 8.57, a pIC50 [2] of 5.29 and a pIC50 [3] of 6.36.

For C=CCn1c(=O)c2cnc(Nc3ccc(N4CCN(CC5CC5)CC4)cc3)nc2n1-c1ccc2c(n1)C(O)CC2 (stereo not drawn) [Compound I-4], the pIC50 [1] was 8.35, the pIC50 [2] was 5.71 and the pIC50 [3] was 6.40.

Molecule C=CCn1c(=O)c2cnc(Nc3ccc(N4CCC(CN(C)C)CC4)cc3)nc2n1-c1ccc2c(n1)C(O)CC2 (stereo not drawn) [Compound I-5, 2-allyl-6-((4-(4-((dimethylamino)methyl)piperidin-1-yl)phenyl)amino)-1-(7-hydroxy-6,7-dihydro-5H-cyclopenta[b]pyridin-2-yl)-1,2-dihydro-3H-pyrazolo[3,4-d]pyrimidin-3-one] has a pIC50 [1] of 8.44, a pIC50 [2] of 5.59 and a pIC50 [3] of 6.41.

Molecule C=CCn1c(=O)c2cnc(Nc3ccc(CN4CCN(C)CC4)cc3)nc2n1-c1ccc2c(n1)C(O)CC2 (stereo not drawn) [Compound I-7] has a pIC50 [1] of 8.01 and a pIC50 [3] of 5.54.

C=CCn1c(=O)c2cnc(Nc3ccc(N4CCC5(CC4)CN(C)C5)cc3)nc2n1-c1ccc2c(n1)C(O)CC2 (stereo not drawn) [Compound I-8] showed a pIC50 [1] of 7.95.

In the case of C=CCn1c(=O)c2cnc(Nc3ccc(N4CCC5(CCN(C)CC5)CC4)cc3)nc2n1-c1ccc2c(n1)C(O)CC2 (stereo not drawn) [Compound I-9, 2-allyl-1-(7-hydroxy-6,7-dihydro-5H-cyclopenta[b]pyridin-2-yl)-6-((4-(9-methyl-3,9-diazaspiro[5.5]undecan-3-yl)phenyl)amino)-1,2-dihydro-3H-pyrazolo[3,4-d]pyrimidin-3-one], the pIC50 [1] was 8.54, the pIC50 [2] was 6.21 and the pIC50 [3] was 6.72.

C=CCn1c(=O)c2cnc(Nc3ccc(N4CC5CC4CN5)cc3)nc2n1-c1ccc2c(n1)C(C)(O)CC2 (stereo not drawn) [Compound I-12, 6-((4-(2,5-diazabicyclo[2.2.1]heptan-2-yl)phenyl)amino)-2-allyl-1-(7-hydroxy-7-methyl-6,7-dihydro-5H-cyclopenta[b]pyridin-2-yl)-1,2-dihydro-3H-pyrazolo[3,4-d]pyrimidin-3-one] gave a pIC50 [1] of 8.43.

C=CCn1c(=O)c2cnc(Nc3ccc(N4CCOCC4)cc3)nc2n1-c1ccc2c(n1)C(C)(O)CC2 (stereo not drawn) [Compound I-15] gave a pIC50 [1] of 8.41.

Molecule C=CCn1c(=O)c2cnc(Nc3ccc(CCC(=O)N4CCCC4)cc3)nc2n1-c1ccc2c(n1)C(C)(O)CCC2 (stereo not drawn) [Compound I-17, 2-allyl-1-(8-hydroxy-8-methyl-5,6,7,8-tetrahydroquinolin-2-yl)-6-((4-(3-oxo-3-(pyrrolidin-1-yl)propyl)phenyl)amino)-1,2-dihydro-3H-pyrazolo[3,4-d]pyrimidin-3-one] has a pIC50 [1] of 7.89.

With C=CCn1c(=O)c2cnc(Nc3ccc(N4CCNCC4)cc3)nc2n1-c1ccc2c(n1)C(C)(O)CCC2 (stereo not drawn) [Compound I-18, 2-allyl-1-(8-hydroxy-8-methyl-5,6,7,8-tetrahydroquinolin-2-yl)-6-((4-(piperazin-1-yl)phenyl)amino)-1,2-dihydro-3H-pyrazolo[3,4-d]pyrimidin-3-one] the pIC50 [1] was 8.69.

C=CCn1c(=O)c2cnc(Nc3ccc(N4CCC5(CC4)CN(C)C5)cc3)nc2n1-c1ccc2c(n1)C(O)CCC2 (stereo not drawn) [Compound I-20, 2-allyl-1-(8-hydroxy-5,6,7,8-tetrahydroquinolin-2-yl)-6-((4-(2-methyl-2,7-diazaspiro[3.5]nonan-7-yl)phenyl)amino)-1,2-dihydro-3H-pyrazolo[3,4-d]pyrimidin-3-one] gave a pIC50 [1] of 8.36.

In the case of C=CCn1c(=O)c2cnc(Nc3ccc(N4CCC5(CC4)CNC5)cc3)nc2n1-c1ccc2c(n1)C(O)CCC2 (stereo not drawn) [Compound I-21, 6-((4-(2,7-diazaspiro[3.5]nonan-7-yl)phenyl)amino)-2-allyl-1-(8-hydroxy-5,6,7,8-tetrahydroquinolin-2-yl)-1,2-dihydro-3H-pyrazolo[3,4-d]pyrimidin-3-one], the pIC50 [1] was 8.24.

C=CCn1c(=O)c2cnc(Nc3ccc(N4CCC5(CCNC5)CC4)cc3)nc2n1-c1ccc2c(n1)C(O)CCC2 (stereo not drawn) [Compound I-22] was tested, and the pIC50 [1] was 8.45.

C=CCn1c(=O)c2cnc(Nc3ccc(N4CCNCC4)cc3)nc2n1-c1ccc2c(n1)C(O)CCC2 (stereo not drawn) [Compound I-24] showed a pIC50 [1] of 8.42.

C=CCn1c(=O)c2cnc(Nc3ccc(N4CC5CC4CN5)cc3)nc2n1-c1ccc2c(n1)C(O)CCC2 (stereo not drawn) [Compound I-25] was tested, and the pIC50 [1] was 8.39.

C=CCn1c(=O)c2cnc(Nc3ccc(N4CCC(N(C)C)CC4)cc3)nc2n1-c1ccc2c(n1)C(O)CCC2 (stereo not drawn) [Compound I-28, 2-allyl-6-((4-(4-(dimethylamino)piperidin-1-yl)phenyl)amino)-1-(8-hydroxy-5,6,7,8-tetrahydroquinolin-2-yl)-1,2-dihydro-3H-pyrazolo[3,4-d]pyrimidin-3-one formate] showed a pIC50 [1] of 8.45.

With C=CCn1c(=O)c2cnc(Nc3ccc(N4C[C@H]5CN(C)C[C@H]5C4)cc3)nc2n1-c1ccc2c(n1)C(O)CC2 (stereo partly drawn) [Compound I-31] the pIC50 [1] was 8.51.

Work on C=CCn1c(=O)c2cnc(Nc3ccc(N4C[C@H]5CN(CC)C[C@H]5C4)cc3)nc2n1-c1ccc2c(n1)C(O)CC2 (stereo partly drawn) [Compound I-37] yielded a pIC50 [1] of 7.93.

Work on C=CCn1c(=O)c2cnc(Nc3ccc(N4CC5(CC(N(C)C)C5)C4)cc3)nc2n1-c1ccc2c(n1)C(O)CC2 (stereo not drawn) [Compound I-42] yielded a pIC50 [3] of 6.49.

In the case of C=CCn1c(=O)c2cnc(Nc3ccc(CCCN(C)C)cc3)nc2n1-c1ccc2c(n1)C(O)CC2 (stereo not drawn) [Compound I-43], the pIC50 [1] was 8.31.
